From PubChem BioAssay AID493240 (Broad Institute, 2011) come the findings set out here.

A word on the AC50: it is the midpoint of the concentration-response curve, whichever way the signal moves.

This assay has as its system SK-MEL-5 viability, ATP luminescence (CellTiter-Glo), 24 h. Nature of the assay: cytotoxicity in parental SK-MEL-5 melanoma cells – cell-based, CellTiter-Glo, cherry-picked, set 3, orthogonal assay for MITF inhibitor project, dose response (AID 493240). Background: Cellular ATP, detected with luciferase, serves as a proxy for viable cell number.

`Cc1ccc2c(c1)Oc1ccc(NC(=O)CCl)cc1C(=O)N2`: the AC50 was 9.65 µM.

With `CCCCN(C)CC(O)Cn1cc(/C=C/C(=O)c2cccs2)c2ccccc21` (centres undefined), the AC50 was 18.8 µM.

In the case of `CCN(CC)CCC(=O)N1C/C(=C/c2ccccc2)C(=O)/C(=C\c2ccccc2)C1`, the AC50 is 24 µM.

`COc1ccc(C(=O)/C=C/C(=O)N(CC(=O)NC2CCCCC2)Cc2ccc(F)cc2)c(O)c1`: the AC50 is 12.8 µM.

As for `CN(C)S(=O)(=O)c1ccc(-c2csc(N/N=C/c3ccco3)n2)cc1`, the AC50 is 16.2 µM.

As for `CC1CCN(CC(CS(=O)(=O)c2ccc([N+](=O)[O-])cc2)N2CCC(C)CC2)CC1` (centres undefined), the half-maximal activity concentration (AC50) is 27.3 µM.

With `CCOC(=O)c1c(NC(C)=O)sc2c(OCC(O)CNC(C)(C)C)c(Br)ccc12` (centres undefined), the AC50 was 19.1 µM.

Regarding `Cc1ccc2[nH]c(=O)c(CN(CCCN(C)C)C(=O)Nc3cccc(Cl)c3)cc2c1`, the AC50 is 24.3 µM.

Regarding `CC1CN(C(=O)CCC(=O)NCCCN2CCC(Cc3ccccc3)CC2)c2cc(Cl)ccc2O1` (centres undefined), the AC50 is 6.98 µM.

`CC1CCC(C(C)C)C(OC(=O)C[n+]2cc(-c3ccc(Cl)cc3)n3c2CCCCC3)C1` (centres undefined): the AC50 was 17.2 µM.

As for `COc1cc(/C=N/N=C(N)N)ccc1OCc1ccc(Cl)cc1`, the AC50 was 18.8 µM.

Regarding `Cc1ccc(NC2=C(Cl)C(=O)c3ccccc3C2=O)cc1`, the AC50 is 9.83 µM.

Consider `COc1ccc(C(=O)/C=C/C(=O)N(CC(=O)NC2CCCCC2)Cc2ccccc2)c(O)c1`, for which the concentration at half-maximal activity (AC50) is 12.9 µM.

In the case of `CCN1CCN(c2ccc(Nc3ccnc4ccccc34)cc2)CC1`, the AC50 is 23.8 µM.

On to `CC1CCCC(NCC(O)COC(c2ccc(F)cc2)c2ccc(F)cc2)C1C` (centres undefined), for which the AC50 is 20.9 µM.

As for `CCCC(=O)N1CCN(c2ccc(NC(=O)c3ccc([N+](=O)[O-])o3)cc2)CC1`, the AC50 was 24.2 µM.

Regarding `COc1cccc(CNCCc2c[nH]c3ccccc23)c1OCc1ccccc1`, the AC50 is 16.8 µM.

With `COc1ccc(C(=O)/C(C#N)=N/Nc2ccc([N+](=O)[O-])cc2)cc1`, the AC50 is 18.5 µM.

In the case of `O=C(N/N=C/c1cccc2cccnc12)c1ccccc1O`, the AC50 was 32.9 µM.

With `CN1CCC(N(C)C(=O)/C=C/c2cn(-c3ccccc3)nc2-c2cccs2)CC1`, the AC50 was 20.1 µM.

As for `N#C/C(=C(/O)c1ccc([N+](=O)[O-])o1)c1nc2ccccc2[nH]1`, the AC50 is 16.3 µM.

On to `O=C(O)/C=C/C(=O)c1ccc2c(c1)CCc1ccccc1-2`, for which the AC50 is 30.5 µM.

In the case of `CCC(=O)N1CCN(c2ccc(NC(=O)c3ccc([N+](=O)[O-])o3)cc2Cl)CC1`, the AC50 is 24.8 µM.

Regarding `CCOc1ccc(-n2c(-c3ccc(OC)cc3)c[n+]3c2CCCCC3)cc1`, the AC50 was 19.6 µM.

`C#CCCc1ccccc1/C=[N+](/C)[O-]`: the concentration at half-maximal activity (AC50) was 20.5 µM.

With `COc1cc(NC(=O)c2ccc([N+](=O)[O-])o2)ccc1NC(=O)c1cccs1`, the AC50 is 20.1 µM.

Take `C(#Cc1ccccc1)C[N+]1(CC#Cc2cccc3ccccc23)CCCC1`: the AC50 was 17.9 µM.

`O=C1C=C(N(CCO)Cc2ccccc2)c2ccccc2C1=O`: the AC50 is 13.3 µM.

On to `CCOC(=O)c1c(C)oc2c(F)c(F)c(F)c(F)c2c1=O`, for which the AC50 is 22.7 µM.

Turning to `Nc1c2c(=O)oc(-c3ccccc3)cc2nn1-c1ccccc1`, the AC50 is 2.49 µM.

`CC(C)(c1ccccc1)c1ccc(OCC(O)CNC2CCN(Cc3ccccc3)CC2)cc1` (centres undefined): the concentration at half-maximal activity (AC50) is 19.9 µM.

As to `COc1ccc(CCn2c(=S)[nH]c3cc(C(=O)NCc4ccco4)ccc3c2=O)cc1OC`, the AC50 is 22.8 µM.

In the case of `Cc1ccc(NC(=O)c2ncn(CCCN[C@H](C)c3cccc4ccccc34)n2)cc1C`, the AC50 is 25.8 µM.

As to `Cn1nnnc1Sc1ncnc2scc(-c3ccc(C#N)cc3)c12`, the AC50 was 18.7 µM.

As for `Cc1ccc(C)c(NC(=O)/C(C#N)=C/c2cn(CC(=O)NCc3ccco3)c3ccccc23)c1`, the AC50 is 15.2 µM.

In the case of `O=c1c2ccccc2nc(/C=C/c2ccc([N+](=O)[O-])o2)n1-c1ccc(O)cc1`, the AC50 is 14.9 µM.

For `COc1cc2c(cc1OC)C(c1ccccc1)N(C(=O)CCl)CC2` (centres undefined), the half-maximal activity concentration (AC50) is 22.6 µM.

On to `CCCN1CCC(NCc2cn(C)nc2-c2ccc(Oc3ccccc3)cc2)CC1`, for which the AC50 was 22.3 µM.

Take `Cc1ccc2nc(N(CCCN(C)C)C(=O)c3ccc4c(c3)CCCC4)sc2c1`: the AC50 was 17.7 µM.

Turning to `COCCN(CC(=O)NC1CCCCC1)C(=O)/C=C/C(=O)c1ccc(OC)cc1O`, the AC50 is 10.5 µM.

In the case of `CN(C)CCNC(=O)/C(=C/c1ccc(-c2ccc(Cl)cc2Cl)o1)NC(=O)c1ccccc1`, the AC50 is 19.4 µM.

On to `Cc1ccc(-c2nnc(SCC(=O)Nc3ccccc3F)o2)cc1`, for which the AC50 is 21.7 µM.

With `COc1ccc(S(=O)(=O)Nc2ccc(O)c3ccccc23)cc1`, the AC50 was 14.7 µM.

For `CCCCn1c(=N)n(CC(=O)c2ccc(Br)s2)c2ccccc21`, the AC50 was 18.5 µM.

With `Cc1cc2oc3ccc(NCCC4CCCN4C)cc3c(=O)c2cc1C` (centres undefined), the AC50 is 17.6 µM.

For the compound `N=c1n(CCN2CCCC2)c2ccccc2n1CC(O)c1ccc(Cl)c(Cl)c1` (centres undefined), the half-maximal activity concentration (AC50) was 16.3 µM.

For the compound `COC1=C(c2ccccc2)C(=O)c2ccccc2C1=O`, the AC50 was 9.91 µM.

On to `COC(=O)C1=C(C)N(Cc2ccccc2)C(=NCC(C)C)N[C@H]1c1cccc(C(F)(F)F)c1`, for which the concentration at half-maximal activity (AC50) was 17.4 µM.

Consider `CC(C)Oc1ccc(C(CCN)C2CCCCC2)cc1` (centres undefined), for which the AC50 is 16.2 µM.

Consider `Cc1ccccc1OCc1n(CC(=O)OC2CC(C)CCC2C(C)C)c2ccccc2[n+]1C` (centres undefined), for which the half-maximal activity concentration (AC50) is 15.8 µM.

Take `COc1ccc(-c2cc3c(nn2)-c2ccccc2C3=O)cc1`: the AC50 is 15 µM.

`Cc1ccc(C(=O)C[n+]2cc(-c3ccc(C)cc3)n3c2CCCCC3)cc1`: the AC50 was 14.4 µM.

As for `COc1ccc(-c2c[n+](CC(=O)OC3CC(C)CCC3C(C)C)c3n2CCC3)cc1` (centres undefined), the AC50 was 14.5 µM.

Consider `CCOC(=O)c1ccc(NC2=CC(=O)C(=O)c3ccccc32)cc1`, for which the AC50 was 14.3 µM.

Take `O=C(Nc1ccc(N2CCN(C(=O)c3ccccc3)CC2)cc1)c1ccc([N+](=O)[O-])o1`: the half-maximal activity concentration (AC50) is 28.3 µM.

For the compound `Cc1ccc(C#CC[N+]2(CC#Cc3ccc(C)cc3)CCCCC2)cc1`, the AC50 is 16 µM.

Consider `O=C(NCC1CCCCC1)C1(CC2CC(c3cccc(Br)c3)=NO2)CCNCC1` (centres undefined), for which the AC50 is 18 µM.

Take `O=C(/C=C/Nc1ccccc1Br)c1ccccn1`: the AC50 is 21.9 µM.

In the case of `COC(=O)C1=C(C)N(Cc2ccccc2)C(=NCCc2cccnc2)N[C@H]1c1ccc(Br)cc1`, the AC50 was 19.2 µM.

For `CCOC(=O)c1c(C)oc2c1C(=O)c1ccccc1C2=O`, the AC50 is 3.37 µM.

Consider `CCN(CC)S(=O)(=O)c1ccc(NC(=O)c2cccnc2Cl)c(NC(=O)c2cccnc2Cl)c1`, for which the AC50 was 12.3 µM.

For the compound `COc1cc(/C=C/C(=O)c2ccc3c(c2)OCCO3)cc(Br)c1OCC(=O)N(C)C`, the AC50 was 18 µM.

Consider `COC1=C(Nc2ccc(O)cc2)C(=O)c2ccccc2C1=O`, for which the AC50 is 8.43 µM.

As to `O=C1C(Cl)=C(N2CCN(c3ccccc3[N+](=O)[O-])CC2)C(=O)c2ccccc21`, the AC50 is 10.8 µM.

Take `COC(=O)c1ccc2c(c1O)C(=O)c1ccccc1C2=O`: the AC50 is 3.74 µM.

With `CCN(CC)CCCNC1=C(Cl)C(=O)c2ccccc2C1=O`, the AC50 is 5.82 µM.

Turning to `O=C1C(Cl)=C(Nc2ccccc2)C(=O)c2ccccc21`, the AC50 was 6.7 µM.

`COc1ccc(-c2cc(-c3ccccc3)[n+](C)c(-c3ccccc3)c2)cc1`: the half-maximal activity concentration (AC50) was 21.2 µM.

Regarding `COc1ccc(CNCCC(c2ccc(F)cc2)c2ccc(OC)cc2)cc1` (centres undefined), the AC50 is 16.6 µM.

As to `S=C=Nc1cccc(C2(N3CCCCC3)CCCCC2)c1`, the AC50 was 20.4 µM.

On to `CCCCC[n+]1ccn(C2=C([O-])c3ccccc3C(=O)/C2=N\S(=O)(=O)c2ccccc2)c1`, for which the AC50 was 15.5 µM.

Take `CC1(C)CC(NC(=O)c2ccc(Cl)c(S(=O)(=O)N(Cc3ccccc3)c3ccccc3)c2)CC(C)(C)N1`: the AC50 is 23.3 µM.

For `Cc1ccc(S(=O)(=O)/N=C2\C(=O)c3ccccc3C([O-])=C2n2cc[n+](CCC(C)C)c2)cc1`, the AC50 is 15.6 µM.

Take `O=C(Cn1ncc(Cl)c(Cl)c1=O)NC1CCCCC1`: the AC50 is 20.5 µM.

In the case of `COC1=C(Nc2ccccc2)C(=O)c2ccccc2C1=O`, the AC50 was 5.11 µM.

Regarding `O=C(N/N=C\c1ccc([N+](=O)[O-])s1)c1cncc(Br)c1`, the AC50 is 21 µM.

As for `O=C(Cn1ncc(Cl)c(Cl)c1=O)N1CCc2ccccc21`, the AC50 was 22.6 µM.

As to `Cc1c(C(=O)Nc2ccc(S(=O)(=O)N(C)C3CCN(C)CC3)cc2)oc2c(Cl)cccc12`, the AC50 is 29.4 µM.

With `CCc1ccc(NC2=CC(=O)C(=O)c3ccccc32)cc1`, the AC50 was 5.85 µM.
